Assay results published in patent US20250205193A1, “THERAPEUTIC COMPOUND AND SALTS” (Regents of the University of Minnesota, priority 2022, published 2025).
Read-outs that look alike come from different tables or passages of the source.

Columns and labels:
[1] = system: 67NR cells; assay: Seahorse XFe96 respiratory experiments in permeabilized cells for pyruvate driven respiration (67NR); format: cell-based; settings: read-out: inhibits pyruvate driven respiration, IC50
Experimental: 4T1 cells were seeded (20,000 cells/well) onto Seahorse XFe96 well plates and incubated overnight in growth media at 37° C. and 5% CO2 for adherence. […] For pyruvate driven respiration experiments, test compound was injected in port A, followed by rPFO (1 nM) in port B, followed by respective substrate cocktails (FCCP stimulated) in port C, and rotenone and antimycin A (0.5 μM) in port D. Final substrate concentrations for specific tests were as follows: (5 mM pyruvate, 0.5 mM malate, 2 mM dichloroacetate (DCA); 10 mM glutamate, 2 mM DCA; 2 μM rotenone).

[2] = system: mice; assay: Single dose acute toxicity study; format: in vivo; settings: single dose 40 mg/kg PO
Experimental: Additionally, a single dose acute toxicity study (40 mg/kg PO, q.d.) was carried out.

[3] = system: Balb-C mice; assay: Maximum tolerated dose study; format: in vivo; settings: up to 40 mg/kg PO, q.d.
Experimental: A maximum tolerated dose study was conducted in Balb-C mice.

[4] = for T1/2: PO 5.00 mg/kg; for F: in vivo, po, 5 mg/kg
Excerpt: (§1) The pharmacokinetics and oral bioavailability of the compound of formula (I) were investigated in mouse following single intravenous and oral gavage.

[5] = in vivo; settings: mouse
Excerpt: as §1

CN(Cc1ccc(C(F)(F)F)cc1)c1ccc2cc(C(=O)O)c(=O)oc2c1 [MN-D7]
IC50 [1]: 17.8 ± 4.9 nM | toxicity upon examination of internal organs [2]: did not cause any toxicity issues | body weight gains and grooming patterns [3]: normal body weight gains and grooming patterns | tolerability [3]: well tolerated | HL_Lambda T1/2 ([4]; G1-Male, IV 1.0 mg/kg): 3.65 h | T1/2 ([4]; G2-Female): 4.41 h | T1/2 ([4]; G2-Male): 4.04 h | F ([4]; female, mouse): 123.84% | F ([4]; male, mouse): 124.96% | mean terminal half-life ([4]; mouse, female, IV dose): 3.15 h | AUC(0-inf) ([5]; female, iv, 1 mg/kg): 626 ng·h/mL | AUC(0-t) ([5]; female, iv, 1 mg/kg): 552 ng·h/mL | C0 ([5]; female, iv, 1 mg/kg): 226 ng/mL | Cmax ([5]; female, iv, 1 mg/kg): 200 ng/mL | MRT inf ([5]; female, iv, 1 mg/kg): 4.34 h | MRT last ([5]; female, iv, 1 mg/kg): 2.95 h | Tmax ([5]; female, iv, 1 mg/kg): 0.08 h | clearance ([5]; female, iv, 1 mg/kg): 26.6 mL/min/kg | half-life ([5]; female, iv, 1 mg/kg): 3.15 h | Vd ([5]; female, iv, 1 mg/kg, Vss_obs Vss): 6.92 L/kg | Vd ([5]; female, iv, 1 mg/kg, Vz_obs Vz): 7.26 L/kg | bioavailability ([5]; female, po): ~124% | half-life ([5]; female, po): 4.41 h | AUC(0-inf) ([5]; female, po, 5 mg/kg): 3480 ng·h/mL | AUC(0-t) ([5]; female, po, 5 mg/kg): 3420 ng·h/mL | Cmax ([5]; female, po, 5 mg/kg): 1450 ng/mL | MRT inf ([5]; female, po, 5 mg/kg): 4.39 h | MRT last ([5]; female, po, 5 mg/kg): 3.88 h | Tmax ([5]; female, po, 5 mg/kg): 0.08 h | half-life ([5]; male, iv): 3.65 h | AUC(0-inf) ([5]; male, iv, 1 mg/kg): 486 ng·h/mL | AUC(0-t) ([5]; male, iv, 1 mg/kg): 413 ng·h/mL | C0 ([5]; male, iv, 1 mg/kg): 185 ng/mL | Cmax ([5]; male, iv, 1 mg/kg): 160 ng/mL | MRT inf ([5]; male, iv, 1 mg/kg): 4.97 h | MRT last ([5]; male, iv, 1 mg/kg): 3.17 h | Tmax ([5]; male, iv, 1 mg/kg): 0.08 h | clearance ([5]; male, iv, 1 mg/kg): 34.3 mL/min/kg | Vd ([5]; male, iv, 1 mg/kg, Vss_obs Vss): 10.2 L/kg | Vd ([5]; male, iv, 1 mg/kg, Vz_obs Vz): 10.8 L/kg | bioavailability ([5]; male, po): ~125% | half-life ([5]; male, po): 4.04 h | AUC(0-inf) ([5]; male, po, 5 mg/kg): 2610 ng·h/mL | AUC(0-t) ([5]; male, po, 5 mg/kg): 2580 ng·h/mL | Cmax ([5]; male, po, 5 mg/kg): 890 ng/mL | MRT inf ([5]; male, po, 5 mg/kg): 4.33 h | MRT last ([5]; male, po, 5 mg/kg): 4.07 h | Tmax ([5]; male, po, 5 mg/kg): 0.25 h
